Measured values reported in US20060019892A1 (Florida Atlantic University, priority 2003, published 2006).

Experiments:
[1] = system: primary cultures of rat neonatal cortex (cultured cortical neurons); type: cell-based
nAChR = conditions: cited from earlier work

Substance: A-O-A-N-S-V*-W-S [gla-1]
- effect on Ca^++ flux in the cells [1]: reducing Ca^++ flux
- modulation of Ca^++ flux in cultured neurons from rat cortex [1]: modulate Ca^++ flux

Substance: HOCCLYGK-CRRYOGCSSASASCCQR [ψPIIIE]
- nAChR activity annotation (nAChR): non comp. nAChR

Substance: RDOCCYHPTCNMSNPQIC* [EI]
- Target: nAChR (subtype) (nAChR): α1γ = α1δβ2 musc.
